Test results from patent US20190160064A1, “METHODS FOR TREATING SKELETAL MUSCLE CACHEXIA ARISING FROM BURN INJURY BY ADMINISTERING PDE4B-SELECTIVE INHIBITORS” (University of Cincinnati, priority 2017, published 2019).

Tests used:
[1] = test system: EDL muscle of burned WT rats; assay: Pre-treatment of WT rats before burn injury, EDL muscle protein breakdown (Example 6); assay type: in vivo, rat; conditions: adult WT rats pre-treated daily for 7 days before 30% TBSA burn, 24 h after burn, vs. saline control WT rats
Protocol: Adult WT rats are pre-treated with either PDE4B-selective inhibitor (4-{[2-(5-Chloro-2-thienyl)-5-ethyl-6-methyl-4-pyrimidinyl]amino}phenyl)acetic acid (test group) or saline (control group). Rats are treated daily for 7 days prior to burn exposure. On day 8, rats are anaesthetized, shaved, and subjected to a third-degree burn on the back, affecting 30% of total body surface area (TBSA). Both test WT rats and control WT rats are then resuscitated. All rats are provided with rat chow equivalent to ˜10% of their body weight.
After 24 h, all rats are re-anesthetized and the gastrocnemius muscles are dissected and rapidly frozen in liquid nitrogen. To assess protein breakdown rates, the dissected extensor digitorum longus (EDL) muscles are tied by the tendons at resting length to stainless steel supports and preincubated in a shaking water bath for 30 min at 37° C. in individually stoppered 25 ml flasks containing oxygenated (95% 02-5% CO2) Krebs-Henseleit bicarbonate buffer (pH 7.4) with 10 mM glucose. Muscles are then transferred to fresh buffer containing 0.5 mM cycloheximide for 2 h incubation. The total (tyrosine) and myofibrillar (1-methyl-histidine, 1-Me-His) protein breakdown rates are determined by measuring the net production of tyrosine and 1-Me-His during 2 h incubation.

[2] = test system: EDL muscle of burn-PDE4B KO rats; assay: EDL muscle protein breakdown during 2 h in vitro incubation with EPAC/PKA inhibitors; assay type: cell-based, rat; conditions: EDL muscle of burn-PDE4B KO rats obtained 24 h after burn, 2 h in vitro incubation with inhibitor
Protocol: After 24 h, rats were re-anesthetized with pentobarbital (50 mg/kg), and the gastrocnemius muscles were dissected and rapidly frozen in liquid nitrogen. To assess protein breakdown rates, the dissected extensor digitorum longus (EDL) muscles were tied by the tendons at resting length to stainless steel supports and preincubated in a shaking water bath for 30 min at 37° C. in individually stoppered 25 ml flasks containing 3 ml oxygenated (95% 02-5% CO2) Krebs-Henseleit bicarbonate buffer (pH 7.4) with 10 mM glucose. Muscles were then transferred to fresh buffer containing 0.5 mM cycloheximide for 2 h incubation. The total (tyrosine) and myofibrillar (1-methyl-histidine, 1-Me-His) protein breakdown rates were determined by measuring the net production of tyrosine and 1-Me-His during 2 h incubation, according to previously published HPLC procedures (Balasubramaniam, A., et al., Torbafylline (HWA 448) inhibits skeletal muscle proteolysis in burned rats, J. Burn Care & Res. 30: S151 (2009)). The protein breakdown studies with PDE4B KO-rats were repeated with eight each of sham and burn rats to corroborate our initial findings. Additional in vivo experiments were performed to obtain tissues for biochemical studies and to study the effects of inhibitors of PKA (H89) and EPAC (ESI-09) on EDL protein breakdown in PDE4B KO-rats.
To elucidate the factor(s) imparting resistance to burn-induced skeletal muscle proteolysis in PDE4B-KO rats, EDL muscles of burn-PDE4B KO rats were incubated in the presence of inhibitors for cAMP downstream elements, PKA (H89) and EPAC (ESI-09).

[3] = test system: burn-induced skeletal muscle proteolysis; conditions: rat, burn injury; cited from earlier work
mouse myotubes, C2C12 = conditions: C2C12 myotubes treated with TNFα+IFNγ; cited from earlier work
PDE4D in lung tissue = conditions: murine model of asthma; cited from earlier work

CCc1c(C)nc(-c2ccc(Cl)s2)nc1Nc1ccc(CC(=O)O)cc1 [Compound 33, (4-{[2-(5-Chloro-2-thienyl)-5-ethyl-6-methyl-4-pyrimidinyl]amino}phenyl) acetic acid]
1-Me-His release from the EDL muscle (myofibrillar protein breakdown) [1]: significantly decreases
Tyr release from the EDL muscle (total protein breakdown) [1]: significantly decreases

O=S(=O)(NCCNC/C=C/c1ccc(Br)cc1)c1cccc2cnccc12 [Compound H89]
burn-induced EDL muscle myofibrillar protein breakdown (1-Me-His) [2]: did not exhibit any effect
burn-induced EDL muscle total protein breakdown (Tyr) [2]: did not exhibit any effect

CC(C)(C)c1cc(C(=O)/C(C#N)=N/Nc2cccc(Cl)c2)no1 [ESI-09]
burn-induced EDL muscle myofibrillar protein breakdown (1-Me-His) [2]: to the same extent as in the EDL muscle of burn-WT rats
burn-induced EDL muscle total protein breakdown (Tyr) [2]: to the same extent as in the EDL muscle of burn-WT rats

CCOCn1cnc2c1c(=O)n(CCCCC(C)(C)O)c(=O)n2C [torbafylline]
EPAC/PI3K/Akt pathway [3]: activating
burn-induced skeletal muscle proteolysis [3]: significantly attenuated
skeletal muscle PDE4 activity [3]: normalizing
skeletal muscle cAMP concentrations [3]: normalizing
PDE4B expression (mouse myotubes, C2C12): normalized
proteolysis (protein breakdown) (mouse myotubes, C2C12): normalized

ciclamilast
PDE4D activity in lung tissue (PDE4D in lung tissue): normalized
PDE4D mRNA expression in lung tissue (PDE4D in lung tissue): normalized
